Results on 31 molecules are retold here after patent publication US20070293530A1, “SULFAMIDE AND SULFAMATE DERIVATIVES AS HISTONE DEACETYLASE INHIBITORS” (METHYLGENE INC., priority 2006, published 2007).

This assay concerns the target HDAC enzyme. In words: Inhibition of Histone Deacetylase Enzymatic Activity (Assay Examples 1 and 2). In kind it is biochemical. To be noted: HDAC isoform not specified; fluorogenic Boc-Lys(Ac)-AMC or Boc-Lys(trifluoroacetyl)-AMC substrate. The method, then: The following protocol is used to assay the compounds of the invention. In the assay, the buffer used is 25 mM HEPES, pH 8.0, 137 mM NaCl, 2.7 mM KCl, 1 mM MgCl2 and the subtrate is Boc-Lys(Ac)-AMC in a 50 mM stock solution in DMSO. The enzyme stock solution is 4.08 μg/mL in buffer.
The compounds are pre-incubated (2 μl in DMSO diluted to 13 μl in buffer for transfer to assay plate) with enzyme (20 μl of 4.08 μg/ml) for 10 minutes at room temperature (35 μl pre-incubation volume). The mixture is pre-incubated for 5 minutes at room temperature. The reaction is started by bringing the temperature to 37° C. and adding 16 μl substrate. Total reaction volume is 50 μl. The reaction is stopped after 20 minutes by addition of 50 μl developer, prepared as directed by Biomol (Fluor-de-Lys developer, Cat. #KI-105). A plate is incubated in the dark for 10 minutes at room temperature before reading (λEx=360 nm, λEm=470 nm, Cutoff filter at 435 nm).
Alternatively, HDAC inhibitory activity was determined using the following assay.
A 30 mM stock of Boc-Lys(trifluoroacetyl)-AMC substrate is prepared in DMSO. 2 μL of test compound in DMSO is diluted to 50 μL in buffer (25 mM HEPES, pH 8.0, 137 mM NaCl, 2.7 mM KCl, 1 mM MgCl2, 0.1% BSA) and pre-incubated with HDAC enzyme (30 μL of a final enzyme concentration of 0.1-0.2 nM) for 10 minutes at room temperature. Reaction is started by adding 18 μL Boc-Lys(trifluoroacetyl)-AMC substrate and incubating at 37° C. for 20-30 minutes. The reaction is stopped by adding 50 μL trypsin (1 mg/mL) and a known HDAC inhibitor (such as LAQ-824). The plate is then incubated in the dark for 20 minutes at room temperature and read with Ex=360 nm, Em=470 nm, cutoff filter at 435 nm.
In the table, A≦0.2 μM; 0.2 μM<B≦0.5 μM; […]; and 1 μM<D≦6 μM.

`COc1ccc(C(=O)N[C@@H](CCCCNS(N)(=O)=O)C(=O)Nc2cccc3cccnc23)cc1OC` [Compound 207, (S)-3,4-dimethoxy-N-(1-oxo-1-(quinolin-8-ylamino)-6-(sulfamoyl-amino)hex-an-2-yl)-benzamide] displayed an IC50 of 200 to 500 nM.
`NS(=O)(=O)NCCCC[C@H](NC(=O)OCc1ccccc1)C(=O)Nc1cccc(-c2ccccc2)c1` [Compound 310, (S)-benzyl 1-(biphenyl-3-ylamino)-1-oxo-6-(sulfamoyl-amino)-hexan-2-ylcarbamate] had an IC50 of no more than 200 nM.
As for `NS(=O)(=O)NCCCCCC(=O)Nc1cc(OCc2ccccn2)cc2cccnc12` [Compound 79, N-(6-(pyridin-2-ylmethoxy)-quinolin-8-yl)-6-(sulfa-moylamino)-hexanamide], the IC50 was no more than 200 nM.
As for `Cc1ccc(-c2nc([C@H](CCCCNS(N)(=O)=O)NC(=O)OCc3ccccc3)c[nH]2)cc1` [Compound 348, (S)-benzyl 5-(sulfamoyl-amino)-1-(2-p-tolyl-1H-imidazol-4-yl)pentyl-carbamate], the figure is 200 to 500 nM; as for `CC(=O)N[C@@H](CCCCNS(N)(=O)=O)C(=O)Nc1cccc2cccnc12` [Compound 34, (S)-2-Acetamido-N-(quinolin-8-yl)-6-(sulfamoylamino)hexanamide], no more than 200 nM.
The molecule `NS(=O)(=O)NCCCC[C@H](NC(=O)Cc1ccccc1)C(=O)Nc1nc(-c2ccccc2)cs1` [Compound 230a, (S)-2-(2-phenylacetamido)-N-(4-phenylthiazol-2-yl)-6-(sulfamoylamino)hexanamide] had an IC50 of no more than 200 nM.
As for `COc1cc(NC(=O)CCCCCNS(N)(=O)=O)c2ncccc2c1` [Compound 40, N-(6-methoxy-quinolin-8-yl)-6-(sulfamoyl-amino)-hexanamide], the IC50 was no more than 200 nM.
For `NS(=O)(=O)NCCCC[C@H](NC(=O)c1cccc2cccnc12)C(=O)Nc1cccc2cccnc12` [Compound 209, (S)-N-(1-oxo-1-(quinolin-8-ylamino)-6-(sulfamoyl-amino)hex-an-2-yl)-quinoline-8-carboxamide], the IC50 lay in the range of 200 to 500 nM.
As for `NS(=O)(=O)NCCCC[C@H](NC(=O)NCc1ccccc1)C(=O)Nc1cccc2cccnc12` [Compound 203, (S)-2-(3-benzylureido)-N-(quinolin-8-yl)-6-(sulfamoylamino)hexanamide], the figure is 200 to 500 nM.
Turning to `COc1ccc(-c2nc([C@H](CCCCNS(N)(=O)=O)NC(=O)OCc3ccccc3)c[nH]2)cc1` [Compound 327, (S)-benzyl 1-(2-(4-methoxyphenyl)-1H-imidazol-4-yl)-5-(sulfamoylamino)pentylcarbamate], the IC50 is no more than 200 nM.
`NS(=O)(=O)NCCCCCC(=O)Nc1cccc(-c2ccccc2)c1` [Compound 4, N-(Biphenyl-3-yl)-6-(sulfamoylamino)hexanamide] showed an IC50 of no more than 200 nM.
As for `NS(=O)(=O)NCCCC[C@H](NC(=O)NCc1ccc(F)cc1)C(=O)Nc1nc(-c2ccccc2)cs1` [Compound 240, (S)-2-(3-(4-fluoro-benzyl)-ureido)-N-(4-phenyl-thiazol-2-yl)-6-(sulfa-moylamino)-hexanamide], the figure is 200 to 500 nM; as for `NS(=O)(=O)NCCCC[C@H](NC(=O)OCc1ccccc1)C(=O)Nc1nc(-c2ccccc2)cs1` [Compound 60, (S)-benzyl 1-oxo-1-(4-phenylthiazol-2-ylamino)-6-(sulfamoyl-amino)-hexan-2-ylcarbamate], no more than 200 nM.
In turn, `COc1ccc(NC(=O)c2csc(NC(=O)[C@H](CCCCNS(N)(=O)=O)NC(=O)OCc3ccccc3)n2)cc1` [Compound 314, (S)-benzyl 1-(4-(4-methoxy-phenyl-carbamoyl)-thiazol-2-ylamino)-1-oxo-6-(sulfamoyl-amino)-hexan-2-ylcarbamate] came in with an IC50 of no more than 200 nM.
Take `COc1cc(NC(=O)[C@H](CCCCNS(N)(=O)=O)NC(=O)OCc2ccccc2)c2ncccc2c1` [Compound 270, (S)-benzyl 1-(6-methoxy-quinolin-8-ylamino)-1-oxo-6-(sulfamoyl-amino)-hexan-2-ylcarbamate]: the IC50 is no more than 200 nM.
`NS(=O)(=O)NCCCC[C@H](NC(=O)OCc1ccccc1)c1csc(Nc2ccccc2)n1` [Compound 364, (S)-benzyl 1-(2-(phenyl-amino)-thiazol-4-yl)-5-(sulfamoyl-amino)-pentyl-carbamate] yielded an IC50 of 500 to 1000 nM.
As to `COc1ccc2[nH]c(C)c(CC(=O)N[C@@H](CCCCNS(N)(=O)=O)C(=O)Nc3cccc4cccnc34)c2c1` [Compound 62, (S)-2-(2-(5-methoxy-2-methyl-1H-indol-3-yl)acetamido)-N-(quinolin-8-yl)-6-(sulfamoyl-amino)-hexanamide], the half-inhibitory concentration (IC50) was 200 to 500 nM.
Molecule `CCOC(=O)N[C@@H](CCCCNS(N)(=O)=O)C(=O)Nc1nc(-c2ccccc2)cs1` [Compound 252, (S)-ethyl 1-oxo-1-(4-phenylthiazol-2-ylamino)-6-(sulfamoylamino)hexan-2-ylcarbamate] registered an IC50 of 200 to 500 nM.
Molecule `NS(=O)(=O)NCCCC[C@H](NC(=O)c1cc2ccccc2o1)C(=O)Nc1cccc2cccnc12` [Compound 51, (S)-N-(1-oxo-1-(quinolin-8-ylamino)-6-(sulfamoyl-amino)-hexan-2-yl)-benzofuran-2-carboxamide] came in with a half-inhibitory concentration (IC50) of 200 to 500 nM.
In turn, `COc1ccc(-c2nc(NC(=O)[C@H](CCCCNS(N)(=O)=O)NC(=O)OCc3ccccc3)sc2C)cc1` [Compound 289, (S)-benzyl 1-(4-(4-methoxy-phenyl)-5-methyl-thiazol-2-ylamino)-1-oxo-6-(sulfamoyl-amino)-hexan-2-ylcarbamate] yielded an IC50 of 200 to 500 nM.
As for `NS(=O)(=O)NCCCC[C@H](NC(=O)OCc1cccc(Cl)c1)C(=O)Nc1nc(-c2ccccc2)cs1` [Compound 242, (S)-3-chlorobenzyl 1-oxo-1-(4-phenyl-thiazol-2-ylamino)-6-(sulfa-moylamino)-hexan-2-ylcarbamate], the figure is no more than 200 nM.
Consider `NS(=O)(=O)NCCCC[C@H](NC(=O)Nc1ccccc1)C(=O)Nc1cccc2cccnc12` [Compound 211, (S)-2-(3-phenyl-ureido)-N-(quinolin-8-yl)-6-(sulfa-moylamino)-hexanamide], for which the IC50 is no more than 200 nM.
The molecule `NS(=O)(=O)NCCCC[C@H](NC(=O)OCc1ccccc1)c1csc(-c2ccc(Br)cc2)n1` [Compound 361, (S)-benzyl 1-(2-(4-bromo-phenyl)-thiazol-4-yl)-5-(sulfamoyl-amino)-pentyl-carbamate] showed an IC50 of 200 to 500 nM.
In turn, `NS(=O)(=O)NCCCC[C@H](NC(=O)OCc1ccccc1)C(=O)Nc1cnc2ccccc2c1` [Compound 274, (S)-benzyl 1-oxo-1-(quinolin-3-ylamino)-6-(sulfamoyl-amino)-hexan-2-ylcarbamate] showed an IC50 of no more than 200 nM.
`NS(=O)(=O)NCCCC[C@H](NC(=O)OCc1ccccc1)c1n[nH]c(-c2ccccc2)n1` [Compound 335, (S)-benzyl 1-(5-phenyl-1H-1,2,4-triazol-3-yl)-5-(sulfamoylamino)pentylcarbamate]: the IC50 was no more than 200 nM.
`NS(=O)(=O)NCCCC[C@H](NC(=O)OCc1ccccc1)C(=O)Nc1nc(-c2ccc(F)cc2)cs1` [Compound 318, (S)-benzyl 1-(4-(4-fluoro-phenyl)-thiazol-2-ylamino)-1-oxo-6-(sulfamoyl-amino)-hexan-2-ylcarbamate]: the IC50 is 200 to 500 nM.
The molecule `COc1ccc(S(=O)(=O)N[C@@H](CCCCNS(N)(=O)=O)C(=O)Nc2cccc3cccnc23)cc1OC` [Compound 201, (S)-2-(3,4-dimethoxyphenylsulfonamido)-N-(quinolin-8-yl)-6-(sulfamoylamino)hexanamide] gave an IC50 of 200 to 500 nM.
On to `NS(=O)(=O)NCCCC[C@H](NC(=O)OCc1ccccc1)C(=O)Nc1nc(-c2ccc(C(F)(F)F)cc2)cs1` [Compound 308, (S)-benzyl 1-oxo-6-(sulfamoyl-amino)-1-(4-(4-(trifluoro-methyl)-phenyl)-thiazol-2-ylamino)-hexan-2-ylcarbamate], for which the IC50 was no more than 200 nM.
Molecule `COc1cccc(-c2csc(NC(=O)[C@H](CCCCNS(N)(=O)=O)NC(=O)OCc3ccccc3)n2)c1` [Compound 309, (S)-benzyl 1-(4-(3-methoxy-phenyl)-thiazol-2-ylamino)-1-oxo-6-(sulfamoyl-amino)-hexan-2-ylcarbamate] yielded an IC50 of 200 to 500 nM.
With `COC(=O)N[C@@H](CCCCNS(N)(=O)=O)C(=O)Nc1nc(-c2ccccc2)cs1` [Compound 319, (S)-methyl 1-oxo-1-(4-phenyl-thiazol-2-ylamino)-6-(sulfamoyl-amino)-hexan-2-ylcarbamate], the IC50 was no more than 200 nM.
Take `NS(=O)(=O)NCCCC[C@H](NC(=O)OCc1ccccc1)C(=O)Nc1nc(C(=O)Nc2ccccc2)cs1` [Compound 313, (S)-benzyl 1-oxo-1-(4-(phenyl-carbamoyl)-thiazol-2-ylamino)-6-(sulfamoyl-amino)-hexan-2-ylcarbamate]: the IC50 was no more than 200 nM.

As usually defined, the IC50 is the midpoint of a concentration-inhibition curve. Higher therefore signals lower potency.
